Test results from patent US11696913B2, “Prolonged ectoparasite-controlling agent for animal” (MITSUI CHEMICALS AGRO, INC., priority 2017, dated 2023).

Experiments:
Ctenocephalides felis [1] = experiment: In vitro contact test with fleas; conditions: read-out: insecticidal activity; for pest or weed control at 0.04 µg/cm2, 0.04 µg/cm2: dose 0.04 μg/cm^2, dead or moribund fleas after 48 h; for pest or weed control at 0.2 µg/cm2, 0.2 µg/cm2: dose 0.2 μg/cm^2, dead or moribund fleas after 48 h; for pest or weed control at 1 µg/cm2, 1 µg/cm2: dose 1 μg/cm^2, dead or moribund fleas after 48 h
Outline: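 Adult male and female cat fleas (5-10 per tube) placed in glass tubes coated with compound from acetone solution (900 ppm gives 5 μg/cm^2), kept at room temperature and ambient humidity. After 48 h, motionless or uncoordinated fleas scored dead or moribund; activity expressed as % dead or moribund.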

Amblyomma americanum = experiment: In vitro contact test with hard ticks (Amblyomma americanum nymphs); conditions: read-out: acaricidal activity; for pest or weed control at 0.04 µg/cm2, 0.04 µg/cm2: dose 0.04 μg/cm^2, 48 h; for pest or weed control at 0.2 µg/cm2, 0.2 µg/cm2: dose 0.2 μg/cm^2, 48 h; for pest or weed control at 1 µg/cm2, 1 µg/cm2: dose 1 μg/cm^2, 48 h
Outline: (§1)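 Adult R. sanguineus, I. ricinus, D. variabilis or A. americanum nymphs exposed in glass vials coated with compound from acetone (900 ppm gives 5 μg/cm^2). Held 48 h at room temperature (R. sanguineus) or 21° C., 85% rel. hum.; then heated at 45-50° C. ≤5 min, motionless or uncoordinated ticks scored dead/moribund.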

Dermacentor variabilis = experiment: In vitro contact test with adult hard ticks (Dermacentor variabilis); conditions: read-out: acaricidal activity; for pest or weed control at 0.04 µg/cm2, 0.04 µg/cm2: dose 0.04 μg/cm^2, 48 h; for pest or weed control at 0.2 µg/cm2, 0.2 µg/cm2: dose 0.2 μg/cm^2, 48 h; for pest or weed control at 1 µg/cm2, 1 µg/cm2: dose 1 μg/cm^2, 48 h
Outline: as §1

Ixodes ricinus = experiment: In vitro contact test with adult hard ticks (Ixodes ricinus); conditions: read-out: acaricidal activity; for pest or weed control at 0.2 µg/cm2, 0.2 µg/cm2: dose 0.2 μg/cm^2, 48 h; for pest or weed control at 1 µg/cm2, 1 µg/cm2: dose 1 μg/cm^2, 48 h; for pest or weed control at 5 µg/cm2, 5 µg/cm2: dose 5 μg/cm^2, 48 h
Outline: as §1

Rhipicephalus sanguineus = experiment: In vitro contact test with adult hard ticks (Rhipicephalus sanguineus); conditions: read-out: acaricidal activity; for pest or weed control at 0.04 µg/cm2, 0.04 µg/cm2: dose 0.04 μg/cm^2, 48 h; for pest or weed control at 0.2 µg/cm2, 0.2 µg/cm2: dose 0.2 μg/cm^2, 48 h; for pest or weed control at 1 µg/cm2, 1 µg/cm2: dose 1 μg/cm^2, 48 h
Outline: as §1

[2] = system: Rhipicephalus (Boophilus) microplus; experiment: In vitro injection test with Rhipicephalus (Boophilus) microplus (BOOPMI Inj); conditions: 168 h, laid fertile eggs after 7 days, read-out: acaricidal activity; for pest or weed control at 32 ng: dose 0.032 μg/animal injected; for pest or weed control at 0.00016 mg: dose 0.16 μg/animal injected; for pest or weed control at 0.0008 mg: dose 0.8 μg/animal injected
Outline: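 Test substance in DMSO; 1 μl injected into abdomen of each of 5 engorged adult female ticks, then held at 28° C., 85% rel. hum. Activity scored after 7 days from laying of fertile eggs: 100% = no eggs or all infertile, 0% = all eggs fertile.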

Ctenocephalides felis [3] = experiment: Ctenocephalides felis in-vitro feeding test with fleas (CTECFE oral); conditions: 48 hours, read-out: insecticidal feeding activity; for pest or weed control at 0.032 ppm: dose 0.032 ppm in citrated cattle blood; for pest or weed control at 0.16 ppm: dose 0.16 ppm in citrated cattle blood; for pest or weed control at 0.8 ppm: dose 0.8 ppm in citrated cattle blood; for pest or weed control at 4 ppm: dose 4 ppm in citrated cattle blood; for pest or weed control at 0.0064 ppm: dose 0.0064 ppm in citrated cattle blood
Outline: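 About 20 unfed adult cat fleas fed through parafilm on citrated cattle blood containing test substance (DMSO solution diluted in blood), held at about 37° C. Kill rate scored after 48 hours, 100% meaning all fleas dead.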

Spodoptera litura = experiment: Insecticidal testing against common cutworm; format: in vivo; conditions: foliar, 144 h, concentration 100 ppm, cabbage leaf dip, second-stage larvae, after 6 days, read-out: pesticidal rate
Excerpt: Insecticidal Testing Against Common Cutworm (Spodoptera litura)

Plutella xylostella = experiment: Insecticidal testing against diamondback moth; format: in vivo; conditions: foliar, 144 h, concentration 100 ppm, cabbage leaf dip, third-stage larvae, after 6 days, read-out: pesticidal rate
Excerpt: Insecticidal Testing Against Diamondback Moth (Plutella xylostella)

Laodelphax striatellus = experiment: Insecticidal testing against small brown planthopper; format: in vivo; conditions: 144 h, concentration 100 ppm, sprayed rice seedlings, after 6 days, read-out: pesticidal rate
Outline: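 Acetone solution of compound at a set concentration sprayed onto rice seedlings, air-dried, then exposed to 10 planthoppers (one group). Held at 25° C; survival rate recorded after 6 days.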

O=C(Nc1cccc(C(=O)Nc2c(I)cc(C(F)(C(F)(F)F)C(F)(F)F)cc2C(F)(F)F)c1F)c1ccc(F)c(F)c1 [Compound 86]
≥ 70%: pest or weed control at 100 ppm (Spodoptera litura) | pest or weed control at 100 ppm (Plutella xylostella) | pest or weed control at 100 ppm (Laodelphax striatellus)
90%: pest or weed control at 0.04 µg/cm2, 0.04 µg/cm2 (Amblyomma americanum) | pest or weed control at 0.2 µg/cm2, 0.2 µg/cm2 (Amblyomma americanum) | pest or weed control at 1 µg/cm2, 1 µg/cm2 (Amblyomma americanum) | pest or weed control at 0.04 µg/cm2, 0.04 µg/cm2 (Dermacentor variabilis) | pest or weed control at 0.2 µg/cm2, 0.2 µg/cm2 (Dermacentor variabilis) | pest or weed control at 1 µg/cm2, 1 µg/cm2 (Dermacentor variabilis) | pest or weed control at 0.2 µg/cm2, 0.2 µg/cm2 (Ixodes ricinus) | pest or weed control at 1 µg/cm2, 1 µg/cm2 (Ixodes ricinus) | pest or weed control at 5 µg/cm2, 5 µg/cm2 (Ixodes ricinus) | pest or weed control at 0.04 µg/cm2, 0.04 µg/cm2 (Rhipicephalus sanguineus) | pest or weed control at 0.2 µg/cm2, 0.2 µg/cm2 (Rhipicephalus sanguineus) | pest or weed control at 1 µg/cm2, 1 µg/cm2 (Rhipicephalus sanguineus)
95%: pest or weed control at 0.04 µg/cm2, 0.04 µg/cm2 (Ctenocephalides felis [1]) | pest or weed control at 0.2 µg/cm2, 0.2 µg/cm2 (Ctenocephalides felis [1]) | pest or weed control at 1 µg/cm2, 1 µg/cm2 (Ctenocephalides felis [1]) | pest or weed control at 0.032 ppm (Ctenocephalides felis [3]) | pest or weed control at 0.16 ppm (Ctenocephalides felis [3]) | pest or weed control at 0.8 ppm (Ctenocephalides felis [3]) | pest or weed control at 4 ppm (Ctenocephalides felis [3])
100%: pest or weed control at 32 ng [2] | pest or weed control at 0.00016 mg [2] | pest or weed control at 0.0008 mg [2]

O=C(Nc1cccc(C(=O)Nc2c(I)cc(C(F)(C(F)(F)F)C(F)(F)F)cc2OC(F)F)c1F)c1ccc(F)c(F)c1 [Compound 110]
≥ 70%: pest or weed control at 100 ppm (Spodoptera litura) | pest or weed control at 100 ppm (Plutella xylostella) | pest or weed control at 100 ppm (Laodelphax striatellus)
95%: pest or weed control at 0.2 µg/cm2, 0.2 µg/cm2 (Ctenocephalides felis [1]) | pest or weed control at 1 µg/cm2, 1 µg/cm2 (Ctenocephalides felis [1]) | pest or weed control at 0.032 ppm (Ctenocephalides felis [3]) | pest or weed control at 0.16 ppm (Ctenocephalides felis [3]) | pest or weed control at 0.8 ppm (Ctenocephalides felis [3]) | pest or weed control at 4 ppm (Ctenocephalides felis [3])
90%: pest or weed control at 0.04 µg/cm2, 0.04 µg/cm2 (Amblyomma americanum) | pest or weed control at 0.2 µg/cm2, 0.2 µg/cm2 (Amblyomma americanum) | pest or weed control at 1 µg/cm2, 1 µg/cm2 (Amblyomma americanum) | pest or weed control at 0.2 µg/cm2, 0.2 µg/cm2 (Dermacentor variabilis) | pest or weed control at 1 µg/cm2, 1 µg/cm2 (Dermacentor variabilis) | pest or weed control at 0.2 µg/cm2, 0.2 µg/cm2 (Ixodes ricinus) | pest or weed control at 1 µg/cm2, 1 µg/cm2 (Ixodes ricinus) | pest or weed control at 5 µg/cm2, 5 µg/cm2 (Ixodes ricinus) | pest or weed control at 0.2 µg/cm2, 0.2 µg/cm2 (Rhipicephalus sanguineus) | pest or weed control at 1 µg/cm2, 1 µg/cm2 (Rhipicephalus sanguineus)
100%: pest or weed control at 32 ng [2] | pest or weed control at 0.00016 mg [2] | pest or weed control at 0.0008 mg [2]

O=C(Nc1cccc(C(=O)Nc2c(I)cc(C(F)(C(F)(F)F)C(F)(F)F)cc2OC(F)F)c1F)c1ccc(C(F)(F)F)nc1 [Compound 108]
100%: pest or weed control at 32 ng [2] | pest or weed control at 0.00016 mg [2] | pest or weed control at 0.0008 mg [2]
≥ 70%: pest or weed control at 100 ppm (Spodoptera litura) | pest or weed control at 100 ppm (Plutella xylostella) | pest or weed control at 100 ppm (Laodelphax striatellus)
90%: pest or weed control at 0.2 µg/cm2, 0.2 µg/cm2 (Amblyomma americanum) | pest or weed control at 1 µg/cm2, 1 µg/cm2 (Amblyomma americanum) | pest or weed control at 0.2 µg/cm2, 0.2 µg/cm2 (Dermacentor variabilis) | pest or weed control at 1 µg/cm2, 1 µg/cm2 (Dermacentor variabilis) | pest or weed control at 0.2 µg/cm2, 0.2 µg/cm2 (Ixodes ricinus) | pest or weed control at 1 µg/cm2, 1 µg/cm2 (Ixodes ricinus) | pest or weed control at 5 µg/cm2, 5 µg/cm2 (Ixodes ricinus) | pest or weed control at 0.04 µg/cm2, 0.04 µg/cm2 (Rhipicephalus sanguineus) | pest or weed control at 0.2 µg/cm2, 0.2 µg/cm2 (Rhipicephalus sanguineus) | pest or weed control at 1 µg/cm2, 1 µg/cm2 (Rhipicephalus sanguineus)
95%: pest or weed control at 0.2 µg/cm2, 0.2 µg/cm2 (Ctenocephalides felis [1]) | pest or weed control at 1 µg/cm2, 1 µg/cm2 (Ctenocephalides felis [1]) | pest or weed control at 0.0064 ppm (Ctenocephalides felis [3]) | pest or weed control at 0.032 ppm (Ctenocephalides felis [3]) | pest or weed control at 0.16 ppm (Ctenocephalides felis [3]) | pest or weed control at 0.8 ppm (Ctenocephalides felis [3]) | pest or weed control at 4 ppm (Ctenocephalides felis [3])

O=C(Nc1cccc(C(=O)Nc2c(Br)cc(C(F)(C(F)(F)F)C(F)(F)C(F)(F)F)cc2OC(F)F)c1F)c1ccc(F)cc1 (stereo not shown) [Compound 106]
90%: pest or weed control at 0.04 µg/cm2, 0.04 µg/cm2 (Amblyomma americanum) | pest or weed control at 0.2 µg/cm2, 0.2 µg/cm2 (Amblyomma americanum) | pest or weed control at 1 µg/cm2, 1 µg/cm2 (Amblyomma americanum) | pest or weed control at 0.04 µg/cm2, 0.04 µg/cm2 (Dermacentor variabilis) | pest or weed control at 0.2 µg/cm2, 0.2 µg/cm2 (Dermacentor variabilis) | pest or weed control at 1 µg/cm2, 1 µg/cm2 (Dermacentor variabilis) | pest or weed control at 0.2 µg/cm2, 0.2 µg/cm2 (Ixodes ricinus) | pest or weed control at 1 µg/cm2, 1 µg/cm2 (Ixodes ricinus) | pest or weed control at 5 µg/cm2, 5 µg/cm2 (Ixodes ricinus) | pest or weed control at 0.04 µg/cm2, 0.04 µg/cm2 (Rhipicephalus sanguineus) | pest or weed control at 0.2 µg/cm2, 0.2 µg/cm2 (Rhipicephalus sanguineus) | pest or weed control at 1 µg/cm2, 1 µg/cm2 (Rhipicephalus sanguineus)
95%: pest or weed control at 0.04 µg/cm2, 0.04 µg/cm2 (Ctenocephalides felis [1]) | pest or weed control at 0.2 µg/cm2, 0.2 µg/cm2 (Ctenocephalides felis [1]) | pest or weed control at 1 µg/cm2, 1 µg/cm2 (Ctenocephalides felis [1]) | pest or weed control at 0.0064 ppm (Ctenocephalides felis [3]) | pest or weed control at 0.032 ppm (Ctenocephalides felis [3]) | pest or weed control at 0.16 ppm (Ctenocephalides felis [3]) | pest or weed control at 0.8 ppm (Ctenocephalides felis [3]) | pest or weed control at 4 ppm (Ctenocephalides felis [3])
≥ 70%: pest or weed control at 100 ppm (Spodoptera litura) | pest or weed control at 100 ppm (Plutella xylostella) | pest or weed control at 100 ppm (Laodelphax striatellus)
100%: pest or weed control at 6.4 ng ([2]; dose 0.0064 μg/animal injected) | pest or weed control at 32 ng [2] | pest or weed control at 0.00016 mg [2] | pest or weed control at 0.0008 mg [2]

O=C(Nc1cccc(C(=O)Nc2c(I)cc(C(F)(C(F)(F)F)C(F)(F)C(F)(F)F)cc2C(F)(F)F)c1F)c1ccc(F)c(F)c1 (stereo not shown) [Compound 78]
95%: pest or weed control at 0.2 µg/cm2, 0.2 µg/cm2 (Ctenocephalides felis [1]) | pest or weed control at 1 µg/cm2, 1 µg/cm2 (Ctenocephalides felis [1]) | pest or weed control at 0.16 ppm (Ctenocephalides felis [3]) | pest or weed control at 0.8 ppm (Ctenocephalides felis [3]) | pest or weed control at 4 ppm (Ctenocephalides felis [3])
90%: pest or weed control at 0.2 µg/cm2, 0.2 µg/cm2 (Amblyomma americanum) | pest or weed control at 1 µg/cm2, 1 µg/cm2 (Amblyomma americanum) | pest or weed control at 0.04 µg/cm2, 0.04 µg/cm2 (Dermacentor variabilis) | pest or weed control at 0.2 µg/cm2, 0.2 µg/cm2 (Dermacentor variabilis) | pest or weed control at 1 µg/cm2, 1 µg/cm2 (Dermacentor variabilis) | pest or weed control at 0.2 µg/cm2, 0.2 µg/cm2 (Ixodes ricinus) | pest or weed control at 1 µg/cm2, 1 µg/cm2 (Ixodes ricinus) | pest or weed control at 5 µg/cm2, 5 µg/cm2 (Ixodes ricinus) | pest or weed control at 0.2 µg/cm2, 0.2 µg/cm2 (Rhipicephalus sanguineus) | pest or weed control at 1 µg/cm2, 1 µg/cm2 (Rhipicephalus sanguineus)
≥ 70%: pest or weed control at 100 ppm (Spodoptera litura) | pest or weed control at 100 ppm (Plutella xylostella) | pest or weed control at 100 ppm (Laodelphax striatellus)
100%: pest or weed control at 32 ng [2] | pest or weed control at 0.00016 mg [2] | pest or weed control at 0.0008 mg [2]
